Experimental data from PubChem BioAssay (NCI).
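Five concentrations, 48 hours, 96-well plates. The concentration for full growth arrest is given as TGI.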

Tests used:
Test in all cases: DTP human tumour cell line panel, 48 h
[1] = system: HL-60(TB) leukemia
[2] = system: HT29 colon
[3] = system: M14 melanoma
[4] = system: MDA-N
[5] = system: OVCAR-3 ovarian
[6] = system: OVCAR-4 ovarian
[7] = system: OVCAR-5 ovarian
[8] = system: PC-3 prostate
[9] = system: RPMI-8226 leukemia
[10] = system: SF-268 CNS
[11] = system: SK-MEL-28 melanoma
[12] = system: SNB-19 CNS
[13] = system: SR leukemia
[14] = system: SW-620 colon
[15] = system: MDA-MB-231 breast
[16] = system: BT-549 breast

## ClCc1c(-c2ccccc2)nn(-c2ccccc2)c1CCl
[1]
  TGI: 6.13 µM
[2]
  TGI: 31.9 µM
[3]
  TGI: 35.5 µM
[4]
  TGI: 24.2 µM
[5]
  TGI: 26.3 µM
[6]
  TGI: 3.83 µM
[7]
  TGI: 35 µM
[8]
  TGI: 21.4 µM
[9]
  TGI: 7.86 µM
[10]
  TGI: 43.6 µM
[11]
  TGI: 32.3 µM
[12]
  TGI: 43 µM
[13]
  TGI: 33.4 µM
[14]
  TGI: 5.21 µM

## c1ccc([C@H]2CN3CCSC3=N2)cc1
[1]
  TGI: > 100 µM
[2]
  TGI: > 100 µM
[3]
  TGI: > 100 µM
[15]
  TGI: > 100 µM
[4]
  TGI: > 100 µM
[5]
  TGI: > 100 µM
[6]
  TGI: > 100 µM
[7]
  TGI: > 100 µM
[8]
  TGI: > 100 µM
[10]
  TGI: > 100 µM
[11]
  TGI: > 100 µM
[12]
  TGI: > 100 µM
[13]
  TGI: > 100 µM
[14]
  TGI: > 100 µM

## C=C(C)CC1=C(C(=S)NCCO[Si](C)(C)C(C)(C)C)C(OCC)(OCC)C1=O
[1]
  TGI: > 100 µM
[2]
  TGI: > 100 µM
[3]
  TGI: 35 µM
[15]
  TGI: 67.5 µM
[4]
  TGI: 43.2 µM
[6]
  TGI: 34.3 µM
[7]
  TGI: 28.5 µM
[8]
  TGI: 29.4 µM
[10]
  TGI: 47.4 µM
[11]
  TGI: 34.6 µM
[12]
  TGI: 38.3 µM
[14]
  TGI: 47 µM

## COC(=O)C1(NC(=O)C(N)CC(=O)O)C(C)C1C (stereo not drawn)
[1]
  TGI: > 100 µM
[2]
  TGI: > 100 µM
[3]
  TGI: > 100 µM
[15]
  TGI: > 100 µM
[4]
  TGI: > 100 µM
[5]
  TGI: > 100 µM
[6]
  TGI: > 100 µM
[7]
  TGI: > 100 µM
[8]
  TGI: > 100 µM
[9]
  TGI: > 100 µM
[10]
  TGI: > 100 µM
[11]
  TGI: > 100 µM
[12]
  TGI: > 100 µM
[13]
  TGI: > 100 µM
[14]
  TGI: > 100 µM

## CCN(CC)C(=O)c1c(N2CCOCC2)cc(N(CC)CC)oc1=O
[1]
  TGI: > 100 µM
[2]
  TGI: > 100 µM
[3]
  TGI: > 100 µM
[5]
  TGI: > 100 µM
[6]
  TGI: > 100 µM
[9]
  TGI: > 100 µM
[10]
  TGI: > 100 µM
[11]
  TGI: > 100 µM
[12]
  TGI: > 100 µM
[13]
  TGI: > 100 µM
[14]
  TGI: > 100 µM

## NCCCCNCCCN
[16]
  TGI: > 100 µM
[1]
  TGI: > 100 µM
[2]
  TGI: > 100 µM
[3]
  TGI: > 100 µM
[15]
  TGI: > 100 µM
[5]
  TGI: > 100 µM
[6]
  TGI: 37.6 µM
[7]
  TGI: > 100 µM
[8]
  TGI: > 100 µM
[10]
  TGI: > 100 µM
[11]
  TGI: > 100 µM
[12]
  TGI: > 100 µM
[13]
  TGI: > 100 µM
[14]
  TGI: > 100 µM

## C[C@H](CC[C@@H](O)C(C)(C)O)[C@H]1CC[C@@]2(C)[C@@H]3CC=C4[C@@H](CC[C@H](OC5OC(CO)C(O)C(O)C5O)C4(C)C)[C@]3(C)C(=O)C[C@]12C (stereo partly drawn)
[16]
  TGI: > 100 µM
[1]
  TGI: 75.8 µM
[2]
  TGI: > 100 µM
[3]
  TGI: 92.1 µM
[15]
  TGI: > 100 µM
[4]
  TGI: > 100 µM
[5]
  TGI: > 100 µM
[6]
  TGI: > 100 µM
[7]
  TGI: > 100 µM
[8]
  TGI: > 100 µM
[10]
  TGI: > 100 µM
[11]
  TGI: 77.8 µM
[12]
  TGI: > 100 µM
[14]
  TGI: > 100 µM

## COC(=O)c1ccc(C)cc1C1CN=NC12Cc1cc(C)c(C)cc1C2=O (stereo not drawn)
[1]
  TGI: 55.2 µM
[2]
  TGI: > 100 µM
[3]
  TGI: > 100 µM
[15]
  TGI: 81.4 µM
[4]
  TGI: > 100 µM
[5]
  TGI: > 100 µM
[6]
  TGI: > 100 µM
[7]
  TGI: > 100 µM
[9]
  TGI: > 100 µM
[10]
  TGI: > 100 µM
[11]
  TGI: > 100 µM
[12]
  TGI: > 100 µM
[13]
  TGI: > 100 µM
[14]
  TGI: > 100 µM
